# Data as given in patent publication US20230149558A1, “DUOCARMYCIN DERIVATIVE AND USE THEREOF” (The University of Tokyo, priority 2020, published 2023).
# System: HeLa S3 cells
# Assay: Cytotoxicity of Duocarmycin SA and Duocarmycin SA-Valine (Cell Counting Kit-8)
# Type: cell-based
# Details: 1.0E-11 to 6.0E-07, 48 hours, FIG. 11
# Method: In order to confirm the activities of Compound X (Duocarmycin SA) and Compound Y (Duocarmycin SA-Valin) shown in FIG. 9 and FIG. 10, cytotoxicity was confirmed using HeLa S3 cells.
# The cells were seeded on a 96-well plate for cell culture, so that the cell count became 5×10^3 cells/well and the amount of the culture solution became 50 μL/well, and thereafter, the cells were cultured overnight. The concentration of Compound X or Compound Y was adjusted with a culture solution, so that the final concentration thereof became 600 nM. […]
# The medium used in the overnight culture of the cells was exchanged with the prepared agent-diluted solution, and the cells were then cultured for 48 hours. […] The dosage and administration applied in the assay were determined in accordance with the instruction manuals included with the kit, and after addition of the reagent, the mixture was incubated for 1.5 hours at 37° C., in a CO2 incubator. Thereafter, the absorbance at 450 nm was measured, and a mean value was then calculated, followed by background collection. The control was set to be 100%, and the ratio of the cell growth under each condition to the control was calculated. […]
substance,measurement,value
Duocarmycin SA-Valine,effect of suppressing cell growth (ratio of cell growth to control),higher effect of suppressing cell growth than Duocarmycin SA
